System: spontaneous hypertension rats (SHR)
Assay: Hemodynamics effect of inhaled H2 in spontaneous hypertension rats (telemetry)
Assay type: in vivo, rat (SHR/Izumo)
Method: Male Lewis rats (8 weeks-old, body weight 250-300 g), and 10 weeks-old male spontaneous hypertension rats (SHR/Izumo rats; hereinafter simply referred to as SHR) were used (CLEA Japan). Rats were given water and standard food ad libitum, and were not fasted before experiment. Rats were kept under a condition of standardized temperature (22±1° C.) and humidity (55±5) in a 12 hours:12 hours of light-dark cycle. Rats were acclimated to the experimental condition from at least one week before the experiment. This research was approved by institutional animal control committees (Keio University [Tokyo], No. 13002-4; and Nippon Veterinary and Life Science University [Tokyo], No. 30K-61). Rats were randomly assigned to the H2 group or the control group.
In order to monitor continuous blood pressure fluctuation, telemetry transmitters were implanted into rats. Specifically, rats were anesthetized with isoflurane, and the left groin was disinfected with 1% chlorhexidine. An incision of about 1.5 cm was made in the left groin, the left femoral artery was exposed, and a telemetry transmitter (HD-S10, Physiotel HD Telemetry, Data Science International) catheter was inserted into the left femoral artery. The tip of the transmitter catheter was placed in the abdominal aorta caudally from the branch of the renal artery. The transmitter body was inserted into a subcutaneous pocket made in the left lower back, and the skin was sutured. All surgical intervention was performed under sterile conditions.
H2 gas (1.3% H2+21% O2+77.7 N2) and control gas (21% O2+79% N2) were filled into gas cylinders in advance at a factory. The H2 group and the control group were allowed to inhale the H2 gas and the control gas that were mixed in advance. All animals were allowed to inhale the assigned gas at 10 L/minute for 1 hour in an established anesthesia box, and inhaled for an additional three minutes to purge the box (i.e. a total of 63 minutes). In the nephrectomy model and SHR, gas inhalation was repeated every day for 4 weeks and 2 weeks, respectively.
Spontaneous hypertension rats (SHR) are a well-established hereditary hypertensive model that is broadly used in hypertensive research (Okamoto, K. & Aoki, K. Development of a strain of spontaneously hypertensive rats. Jpn. Circ. J. 27, 282-293 (1963); and Rubattu, S., Struk, B., Kreutz, R., Volpe, M. & Lindpaintner, K. Animal models of genetic hypertension: what can we learn for human hypertension? Clin. Exp. Pharmacol. Physiol. 22, S386-393 (1995)). In order to investigate the consistency of the hypotensive effect of H2 in other hypertensive models, the therapeutic effect of H2 gas against hypertension of SHR was investigated (FIG. 1d). […]

[1] = Week 2 compared to Week 1 of daily inhalation, N=3
[2] = Week 3 (week after 2 weeks of inhalation)

## [2H][2H] [H2 gas, Molecular hydrogen (H2)]
[1]
  increase in blood pressure: suppressed
  increase in heart rate: suppressed
[2]
  blood pressure after inhalation was stopped: stayed low
  heart rate after inhalation was stopped: stayed low

Source: patent US20210177889A1, “GASEOUS PHARMACEUTICAL COMPOSITION FOR HYPERTENSION THERAPY” (KEIO UNIVERSITY, priority 2019, published 2021)
